In DBAASP one finds MIC data, which are given here for 13 compounds.

Test systems include Klebsiella pneumoniae; Staphylococcus aureus; Acinetobacter baumannii; Pseudomonas aeruginosa; Bacillus subtilis; Escherichia coli; Salmonella typhimurium; Bacillus cereus.
Test in all cases: ≥ marks a high value that may be exact or a test limit, other limits are often not marked, values filed in µg/mL are converted to µM
Experiment [1] concerns Klebsiella pneumoniae ATCC 13883.
Experiment [2] concerns Staphylococcus aureus ATCC 25923.
The test system of experiment [3] is Candida albicans ATCC 2002.
Experiment [4] has as its system Acinetobacter baumannii ATCC 19606.
For experiment [5], the system named is Candida albicans ATCC 10231.
Experiment [6] has as its system Escherichia coli ATCC 25922.
Experiment [7] relates to Pseudomonas aeruginosa ATCC 27853.
For experiment [8], the system named is Bacillus subtilis ATCC 23857.
Experiment [9] has as its system Staphylococcus aureus ATCC 33591.
Experiment [10] deals with Enterococcus faecalis ATCC 29212.
Experiment [11] concerns Klebsiella pneumoniae ATCC 700603.
The subject of experiment [12] is Staphylococcus epidermidis ATCC 12228.
Experiment [13] concerns Staphylococcus aureus ATCC 29213.

SMILES strings stand for the structures. Values after ≈ are worked out from the molar mass of the structure shown.

In general, MIC refers to the lowest concentration that inhibits growth of the organism. Higher therefore signals a need for much substance. Turning to `CC[C@H](C)[C@H](N)C(=O)N[C@@H](CC(N)=O)C(=O)N[C@@H](CC(C)C)C(=O)N[C@@H](CCCCN)C(=O)N[C@H](C(=O)N[C@@H](CC(C)C)C(=O)N[C@@H](C)C(=O)N[C@@H](CCCN=C(N)N)C(=O)N[C@@H](CC(C)C)C(=O)N[C@@H](C)C(=O)N[C@@H](CCCCN)C(=O)N[C@@H](CCCCN)C(=O)N[C@H](C(=O)N[C@@H](CC(C)C)C(N)=O)[C@@H](C)CC)[C@@H](C)CC` [INLKILARLAKKIL], the MIC in [1] is 3 µM (≈ 4.82 µg/mL); against Klebsiella pneumoniae it was 3 µM (≈ 4.82 µg/mL); in experiment [2], 6.25 µM (≈ 10 µg/mL); in the experiment on Staphylococcus aureus it was 3 µM (≈ 4.82 µg/mL).

Take `CC[C@H](C)[C@H](NC(=O)[C@@H](NC(=O)[C@@H](NC(=O)[C@@H]1CCCN1C(=O)[C@H](Cc1c[nH]c2ccccc12)NC(=O)[C@H](Cc1ccccc1)NC(=O)[C@H](CCCN=C(N)N)NC(=O)[C@H](CCCCN)NC(=O)[C@@H](NC(=O)[C@@H](N)CCCN=C(N)N)[C@@H](C)CC)C(C)C)C(C)C)C(=O)N[C@@H](CCCN=C(N)N)C(=O)N[C@H](C(=O)N[C@H](C(=O)N[C@H](C(=O)O)C(C)C)C(C)C)[C@@H](C)O` [RIKRFWPVVIRTVV]: the MIC in experiment [3] is at least 84.8 µM.

In the case of `CC(C)C[C@H](NC(=O)[C@H](Cc1ccc(O)cc1)NC(=O)[C@H](CCCCN)NC(=O)[C@H](Cc1ccccc1)NC(=O)[C@H](CC(C)C)NC(=O)[C@H](CCCN=C(N)N)NC(=O)[C@H](CCCCN)NC(=O)[C@H](Cc1ccccc1)NC(=O)[C@H](CC(C)C)NC(=O)[C@H](CCCN=C(N)N)NC(=O)[C@@H](N)CCCCN)C(=O)N[C@@H](CCCN=C(N)N)C(=O)N[C@@H](CCCN=C(N)N)C(=O)N[C@@H](Cc1ccccc1)C(=O)O` [KRLFKRLFKYLRRF], the MIC amounted to 1.01 µM (≈ 2 µg/mL) in experiment [4]; 1.01 µM (≈ 2 µg/mL) in the experiment with Acinetobacter baumannii; 2.03 µM (≈ 4 µg/mL) in experiment [5]; 1.01 µM (≈ 2 µg/mL) in [6]; 0.507 µM (≈ 1 µg/mL) in experiment [7]; 2.03 µM (≈ 4 µg/mL) against Pseudomonas aeruginosa. The same compound yielded an MIC in experiment [2] of 0.507 µM (≈ 1 µg/mL).

In the case of `CC[C@H](C)[C@H](NC(=O)CN)C(=O)N[C@@H](CCCN=C(N)N)C(=O)N[C@@H](CCCN=C(N)N)C(=O)NCC(=O)N[C@H](C(=O)N[C@H](C(=O)N[C@@H](CCCCN)C(=O)N[C@H](C(=O)N[C@H](C(=O)N[C@@H](CCCCN)C(=O)N[C@@H](CCCN=C(N)N)C(N)=O)[C@@H](C)CC)[C@@H](C)CC)[C@@H](C)CC)[C@@H](C)CC` [GIRRGIIKIIKR], the MIC is at least 32 µM in experiment [8] and 128 µM (≈ 182 µg/mL) in [6].

`CC(C)C[C@H](NC(=O)[C@H](CC(C)C)NC(=O)[C@H](CCCCN)NC(=O)[C@H](CCCCN)NC(=O)[C@H](CC(C)C)NC(=O)[C@H](Cc1cnc[nH]1)NC(=O)[C@H](CCCCN)NC(=O)[C@H](CC(C)C)NC(=O)[C@@H](N)Cc1ccccc1)C(N)=O` [FLKHLKKLL]: the MIC in [4] was 112 µM (≈ 128 µg/mL); in experiment [6], 56.2 µM (≈ 63.9 µg/mL); in [7], 7.02 µM (≈ 7.99 µg/mL); in [2] it was 112 µM (≈ 128 µg/mL).

`CC(C)[C@H](NC(=O)CNC(=O)[C@H](CCCN=C(N)N)NC(=O)[C@@H](NC(=O)[C@H](Cc1c[nH]c2ccccc12)NC(=O)[C@@H](NC(=O)[C@H](CCCN=C(N)N)NC(=O)CNC(=O)[C@H](Cc1c[nH]c2ccccc12)NC(=O)[C@H](CCCN=C(N)N)NC(=O)[C@@H](NC(=O)[C@@H](NC(=O)[C@@H](NC(=O)CN)C(C)C)C(C)C)C(C)C)C(C)C)C(C)C)C(=O)N[C@@H](CCCN=C(N)N)C(=O)N[C@@H](CCCN=C(N)N)C(N)=O` [GVVVRWGRVWVRGVRR]: the MIC against Bacillus subtilis was 2 µM (≈ 3.87 µg/mL); in the experiment on Escherichia coli, 4 µM (≈ 7.75 µg/mL); against Salmonella typhimurium it was 2 µM (≈ 3.87 µg/mL); with Staphylococcus aureus, 4 µM (≈ 7.75 µg/mL).

In the case of `CC[C@H](C)[C@H](NC(=O)[C@H](CCC(N)=O)NC(=O)[C@H](CCSC)NC(=O)[C@H](CCC(N)=O)NC(=O)[C@@H](NC(=O)[C@H](CCCCN)NC(=O)[C@H](Cc1ccccc1)NC(=O)[C@H](Cc1c[nH]c2ccccc12)NC(=O)[C@@H](N)CCCN=C(N)N)[C@@H](C)CC)C(=O)N[C@@H](CCCN=C(N)N)C(=O)N[C@@H](CCCN=C(N)N)C(=O)N[C@@H](Cc1c[nH]c2ccccc12)C(=O)N[C@@H](CCCCN)C(=O)N[C@@H](CC(N)=O)C(=O)N[C@@H](CCCCN)C(=O)N[C@@H](CCCCN)C(N)=O` [RWFKIQMQIRRWKNKK], the MIC is 32 µM (≈ 71.9 µg/mL) in [6] and at least 64 µM in experiment [9].

On to `CC[C@H](C)[C@H](NC(=O)[C@H](CCCCN)NC(=O)[C@@H](NC(=O)[C@@H](NC(=O)[C@H](CCCCN)NC(=O)[C@@H](NC(=O)[C@@H](NC(=O)CNC(=O)[C@H](C)NC(=O)[C@@H](NC(=O)[C@@H](NC(=O)CN)[C@@H](C)CC)[C@@H](C)CC)[C@@H](C)CC)[C@@H](C)CC)[C@@H](C)CC)[C@@H](C)CC)C(N)=O` [GIIAGIIKIIKI], for which the minimal inhibitory concentration (MIC) in [8] is at least 128 µM; in experiment [6], over 128 µM.

Take `CC(C)C[C@H](NC(=O)CN)C(=O)N[C@@H](CC(C)C)C(=O)N[C@@H](CCCCN)C(=O)N[C@@H](CCCN=C(N)N)C(=O)N[C@@H](CC(C)C)C(=O)N[C@@H](CCCCN)C(=O)N[C@H](C(=O)N[C@@H](CC(C)C)C(=O)N[C@@H](C)C(N)=O)[C@@H](C)O` [GLLKRLKTLA]: the MIC was over 512 µM in experiment [4]; at least 32 µM in experiment [8]; over 512 µM in [10]; 256 µM (≈ 285 µg/mL) in experiment [6]; 256 µM (≈ 285 µg/mL) in [11]; 64 µM (≈ 71.1 µg/mL) in experiment [7]. Also, the MIC was determined as 256 µM (≈ 285 µg/mL) in experiment [2] and 64 µM (≈ 71.1 µg/mL) in [12].

For `C[C@@H](O)[C@H](NC(=O)[C@H](CCCCN)NC(=O)[C@H](Cc1c[nH]c2ccccc12)NC(=O)[C@H](CCCN=C(N)N)NC(=O)[C@H](CCCCN)NC(=O)[C@H](Cc1c[nH]c2ccccc12)NC(=O)[C@H](Cc1c[nH]c2ccccc12)NC(=O)CN)C(=O)N[C@@H](Cc1c[nH]c2ccccc12)C(=O)N[C@@H](Cc1c[nH]c2ccccc12)C(N)=O` [GWWKRWKTWW], the MIC in experiment [4] is 16 µM (≈ 24.3 µg/mL); in experiment [8], 4 µM (≈ 6.08 µg/mL); in [10], 16 µM (≈ 24.3 µg/mL); in experiment [6] it was 16 µM (≈ 24.3 µg/mL); in [11], 16 µM (≈ 24.3 µg/mL); in experiment [7], 8 µM (≈ 12.2 µg/mL). For the same compound, the MIC in experiment [2] was determined as 8 µM (≈ 12.2 µg/mL); in experiment [12], 4 µM (≈ 6.08 µg/mL).

For the compound `CC[C@H](C)[C@H](NC(=O)[C@H](Cc1cnc[nH]1)NC(=O)[C@H](CCCN=C(N)N)NC(=O)[C@H](CC(C)C)NC(=O)[C@H](CC(N)=O)NC(=O)[C@@H](N)CC(N)=O)C(=O)N[C@H](C(=O)N[C@@H](C)C(=O)N[C@@H](Cc1c[nH]c2ccccc12)C(=O)N[C@H]1CSSC[C@@H](C(=O)N[C@@H](C)C(=O)N[C@@H](CCCN=C(N)N)C(=O)N[C@@H](Cc2ccccc2)C(=O)N[C@@H](CCCCN)C(=O)N2CCC[C@H]2C(=O)N[C@@H](CCC(N)=O)C(=O)O)NC(=O)[C@H](C(C)C)NC(=O)[C@H](C)NC(=O)[C@H](CC(C)C)NC(=O)[C@H](CO)NC(=O)[C@H](Cc2ccc(O)cc2)NC(=O)[C@H](CC(N)=O)NC(=O)[C@H](CCCN=C(N)N)NC(=O)[C@H](CC(N)=O)NC(=O)[C@H](CCCCN)NC1=O)C(C)C` [NNLRHIVAWCKNRNYSLAVCARFKPQ], the MIC in experiment [4], in [10], in experiment [6] and in [13] was over 64 µM each time.

For `CC[C@H](C)[C@H](NC(=O)CNC(=O)[C@H](CCCN=C(N)N)NC(=O)[C@H](CCCCN)NC(=O)[C@@H](NC(=O)CNC(=O)[C@H](CCCN=C(N)N)NC(=O)[C@H](CCCCN)NC(=O)[C@@H](NC(=O)CN)[C@@H](C)CC)[C@@H](C)CC)C(=O)N[C@@H](CCCCN)C(=O)N[C@@H](CCCN=C(N)N)C(N)=O` [GIKRGIKRGIKR], the MIC in experiment [8] is at least 128 µM; in [6], over 128 µM.

On to `CC(C)C[C@H](NC(=O)[C@@H](N)Cc1ccccc1)C(=O)NCC(=O)N[C@@H](CCCCN)C(=O)N[C@H](C(=O)N[C@@H](Cc1ccccc1)C(=O)N[C@@H](CCCCN)C(=O)NCC(=O)N[C@H](C(=O)N[C@@H](CO)C(=O)N[C@@H](CCCCN)C(=O)N[C@H](C(=O)N[C@@H](Cc1ccccc1)C(=O)N1CCC[C@H]1C(=O)N[C@@H](C)C(=O)N[C@H](C(=O)N[C@@H](Cc1ccccc1)C(=O)NCC(=O)N[C@@H](CCCCN)C(=O)N[C@H](C(=O)O)C(C)C)C(C)C)C(C)C)C(C)C)C(C)C` [FLGKVFKGVSKVFPAVFGKV], for which the MIC in the experiment on Bacillus cereus was at least 59.4 µM; against Escherichia coli, 59.4 µM (≈ 128 µg/mL); against Staphylococcus aureus it was over 59.4 µM.
